# Biological target: T1, human H1 (Homo sapiens, UniProt P35367)
# T1 construct: host or cells: CHO-K1, also expressing mitochondrion-targeted aequorin
# Experiment: In vitro histamine H1 receptor cell-based aequorin bioluminescence antagonist assay
# Conditions: CHO-K1 cells expressing human H1 and aequorin; histamine at EC80; read-out: H1 Antagonist EC50
# Protocol: In vitro Histamine Receptor Cell-Based Assays
# The cell-based assays utilize an aequorin dependent bioluminescence signal. Doubly-transfected, stable CHO—K1 cell lines expressing human H1 or H4, mitochondrion-targeted aequorin, and (H4 only) human G protein Gα16 are obtained from Perkin-Elmer. Cells are maintained in F12 (Ham's) growth medium, containing 10% (vol./vol.) fetal bovine serum, penicillin (100 IU/mL), streptomycin (0.1 mg/mL), zeocin (0.25 mg/mL) and geneticin (0.40 mg/mL). Cell media components are from Invitrogen, Inc. One day prior to assay, the growth medium is replaced with the same, excluding zeocin and geneticin.
# For assay preparation, growth medium is aspirated, and cells are rinsed with calcium-free, magnesium-free phosphate-buffered saline, followed by two to three minute incubation in Versene (Invitrogen, Inc.) at 37° C. Assay medium (DMEM:F12 [50:50], phenol-red free, containing 1 mg/mL protease-free bovine serum albumin) is added to collect the released cells, which are then centrifuged. The cell pellet is re-suspended in assay medium, centrifuged once more, and re-suspended in assay medium to a final density of 5×10^6 cells/mL. Coelenterazine-h dye (500 μM in ethanol) is added to a final concentration of 5 μM, and mixed immediately. The conical tube containing the cells is then wrapped with foil to protect the light-sensitive dye. The cells are incubated for four hours further at room temperature (approximately 21° C.) with end-over-end rotation to keep them in suspension.
# Just before assay, the dye-loaded cells are diluted to 0.75×10^6 cells/mL (H1 receptor) or 1.5×10^6 cells/mL (H4 receptor) with additional assay medium. Cells are dispensed to 1536 well micro-titer plates at 3 μL/well. To assay receptor antagonism, 60 nl of 100× concentration test compounds in 100% dimethyl sulfoxide (DMSO) are dispensed to the wells, one compound per well, by passive pin transfer, and the plates are incubated for 15 minutes at room temperature. […] The pipette dispenses 3 μL/well of agonist (histamine, at twice the final concentration, where final concentration is a previously determined EC80) in assay medium, with concurrent bioluminescence detection. Agonist activity of test compounds is excluded by separate assays that measure response to test compounds immediately, without added histamine agonist.
# CCD image capture on the Lumilux includes a 5 second baseline read prior to agonist addition, and generally a 40 second read per plate after agonist addition. A decrease in bioluminescence signal (measured either as area-under-the-curve, or maximum signal amplitude minus minimum signal amplitude) correlates with receptor antagonism in a dose dependent manner. The negative control is DMSO lacking any test compound. For antagonist assays, the positive controls are diphenhydramine (2-Diphenylmethoxy-N,N-dimethylethylamine, 10 μM final concentration, H1 receptor) or JNJ7777120 (1-[(5-Chloro-1H-indol-2-yl)carbonyl]-4-methyl-piperazine, 10 μM final concentration, H4 receptor). Efficacy is measured as a percentage of positive control activity.
# T1 sequence (P35367 whole entry): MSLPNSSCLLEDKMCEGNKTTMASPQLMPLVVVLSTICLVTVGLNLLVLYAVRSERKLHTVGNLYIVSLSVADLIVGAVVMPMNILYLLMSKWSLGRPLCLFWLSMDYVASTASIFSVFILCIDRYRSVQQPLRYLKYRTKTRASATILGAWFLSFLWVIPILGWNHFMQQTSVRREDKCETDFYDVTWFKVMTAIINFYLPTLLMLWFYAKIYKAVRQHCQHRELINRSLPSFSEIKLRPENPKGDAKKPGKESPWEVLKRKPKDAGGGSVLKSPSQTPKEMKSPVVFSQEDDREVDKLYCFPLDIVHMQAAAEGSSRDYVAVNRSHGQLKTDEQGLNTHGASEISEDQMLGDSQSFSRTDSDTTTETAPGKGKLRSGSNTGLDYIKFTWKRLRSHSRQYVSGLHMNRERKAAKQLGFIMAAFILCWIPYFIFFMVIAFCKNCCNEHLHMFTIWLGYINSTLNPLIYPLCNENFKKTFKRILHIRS
row,SMILES,EC50 [µM]
1,"Cc1csc2ncnc(OCCc3ccc(Cl)cc3)c12 [Example 26, 4-(4-chlorophenethoxy)-5-methylthieno[2,3-d]pyrimidine]",> 10
2,"Cc1csc2ncnc(NCCc3cccc(Cl)c3)c12 [Example 149, N-[2-(3-chlorophenyl)ethyl]-5-methylthieno[2,3-d]pyrimidin-4-amine]",> 10
3,"Clc1ccc(CCNc2ccnc3sccc23)cc1 [Example 38, N-(4-chlorophenethyl)thieno[2,3-b]pyridin-4-amine]",> 10
4,"Cc1csc2ncnc(N[C@H](C)c3ccccc3)c12 [Example 97, 5-methyl-N-[(1R)-1-phenylethyl]thieno[2,3-d]pyrimidin-4-amine]",> 10
5,"Cc1csc2ncnc(NCc3ccc(F)c(Cl)c3)c12 [Example 152, N-[(3-chloro-4-fluorophenyl)methyl]-5-methylthieno[2,3-d]pyrimidin-4-amine]",> 10
6,"Cc1csc2ncnc(NCC(C)c3ccccc3)c12 (centres unmarked) [Example 119, 5-methyl-N-(2-phenylpropyl)thieno[2,3-d]pyrimidin-4-amine]",> 10
7,"Cc1csc2ncnc(NCc3ccc(F)cc3)c12 [Example 103, N-[(4-fluorophenyl)methyl]-5-methylthieno[2,3-d]pyrimidin-4-amine]",> 10
8,"Cc1csc2ncnc(NCCC(C)(C)C)c12 [Example 78, N-(3,3-dimethylbutyl)-5-methylthieno[2,3-d]pyrimidin-4-amine]",> 10
9,"Cc1csc2ncnc(NC3CCCCCC3)c12 [Example 90, N-cycloheptyl-5-methylthieno[2,3-d]pyrimidin-4-amine]",> 10
10,"Cc1csc2ncnc(NCc3cc(F)cc(F)c3)c12 [Example 135, N-[(3,5-difluorophenyl)methyl]-5-methylthieno[2,3-d]pyrimidin-4-amine]",> 10
11,"Cc1csc2ncnc(NC(C)CC(C)C)c12 (centres unmarked) [Example 79, 5-methyl-N-(4-methylpentan-2-yl)thieno[2,3-d]pyrimidin-4-amine]",> 10
12,"Cc1ccccc1CNc1ncnc2scc(C)c12 [Example 99, 5-methyl-N-[(2-methylphenyl)methyl]thieno[2,3-d]pyrimidin-4-amine]",> 10
13,"CCCC(C)Nc1ncnc2scc(C)c12 (centres unmarked) [Example 66, 5-methyl-N-(pentan-2-yl)thieno[2,3-d]pyrimidin-4-amine]",> 10
14,"Cc1csc2ncnc(NC(CO)C(C)C)c12 (centres unmarked) [Example 82, 3-methyl-2-({5-methylthieno[2,3-d]pyrimidin-4-yl}amino)butan-1-ol]",> 10
15,"COc1ccc(CCNc2ccnc3scc(C)c23)cc1 [Example 37, N-(4-methoxyphenethyl)-3-methylthieno[2,3-b]pyridin-4-amine]",> 10
16,"Cc1csc2ncnc(NCc3cccs3)c12 [Example 87, 5-methyl-N-(thiophen-2-ylmethyl)thieno[2,3-d]pyrimidin-4-amine]",> 10
17,"Cc1csc2ncnc(NCc3ccc(F)c(F)c3)c12 [Example 134, N-[(3,4-difluorophenyl)methyl]-5-methylthieno[2,3-d]pyrimidin-4-amine]",> 10
18,"Cc1csc2ncnc(NCc3cccc(Cl)c3)c12 [Example 129, N-[(3-chlorophenyl)methyl]-5-methylthieno[2,3-d]pyrimidin-4-amine]",> 10
19,"Cc1csc2ncnc(NCc3ccc(C(C)C)cc3)c12 [Example 140, 5-methyl-N-{[4-(propan-2-yl)phenyl]methyl}thieno[2,3-d]pyrimidin-4-amine]",> 10
20,"COc1ccccc1CCNc1ncnc2scc(C)c12 [Example 145, N-[2-(2-methoxyphenyl)ethyl]-5-methylthieno[2,3-d]pyrimidin-4-amine]",> 10
21,"Cc1csc2ncnc(NCCC(C)C)c12 [Example 69, 5-methyl-N-(3-methylbutyl)thieno[2,3-d]pyrimidin-4-amine]",> 10
22,"Cc1cccc(CNc2ncnc3scc(C)c23)c1 [Example 95, 5-methyl-N-[(3-methylphenyl)methyl]thieno[2,3-d]pyrimidin-4-amine]",> 10
23,"Cc1csc2ncnc(NC(C)CCc3ccccc3)c12 (centres unmarked) [Example 139, 5-methyl-N-(4-phenylbutan-2-yl)thieno[2,3-d]pyrimidin-4-amine]",> 10

# Results, then the compound that gave them:
row,EC50 [µM],SMILES
1,> 10,"Cc1csc2ncnc(NCCNC(=O)OC(C)(C)C)c12 [Example 154, tert-butyl N-[2-({5-methylthieno[2,3-d]pyrimidin-4-yl}amino)ethyl]carbamate]"
2,> 10,"COc1cc(CNc2ncnc3scc(C)c23)cc(OC)c1 [Example 159, N-[(3,5-dimethoxyphenyl)methyl]-5-methylthieno[2,3-d]pyrimidin-4-amine]"
3,> 10,"Cc1csc2ncnc(N(CCc3ccccc3)Cc3ccccc3)c12 [Example 277, N-benzyl-5-methyl-N-(2-phenylethyl)thieno[2,3-d]pyrimidin-4-amine]"
4,> 10,"Cc1csc2ncnc(N3CCN(CC4CCCCC4)CC3)c12 [Example 247, 1-(cyclohexylmethyl)-4-{5-methylthieno[2,3-d]pyrimidin-4-yl}piperazine]"
5,> 10,"CCCCN(Cc1ccccc1)c1ncnc2scc(C)c12 [Example 235, N-benzyl-N-butyl-5-methylthieno[2,3-d]pyrimidin-4-amine]"
6,> 10,"Cc1csc2ncnc(N3CCN(C(=O)OC(C)(C)C)CC3)c12 [Example 250, tert-butyl 4-{5-methylthieno[2,3-d]pyrimidin-4-yl}piperazine-1-carboxylate]"
7,> 10,"Cc1csc2ncnc(NCCC(c3ccccc3)c3ccccc3)c12 [Example 176, N-(3,3-diphenylpropyl)-5-methylthieno[2,3-d]pyrimidin-4-amine]"
8,> 10,"COC[C@@H]1CCCN1c1ncnc2scc(C)c12 [Example 205, (2S)-2-(methoxymethyl)-1-{5-methylthieno[2,3-d]pyrimidin-4-yl}pyrrolidine]"
9,> 10,"Cc1sc2ncnc(NCCc3ccc(S(N)(=O)=O)cc3)c2c1C [Example 301, 4-(2-(5,6-dimethylthieno[2,3-d]pyrimidin-4-ylamino)ethyl)benzenesulfonamide]"
10,> 10,"CC(Nc1ncnc2sccc12)c1ccccc1 (centres unmarked) [Example 311, N-(1-phenylethyl)thieno[2,3-d]pyrimidin-4-amine]"
11,> 10,"CCOC(=O)CNc1ncnc2scc(-c3ccccc3)c12 [Example 300, Ethyl 2-(5-phenylthieno[2,3-d]pyrimidin-4-ylamino)acetate]"
12,> 10,"Cc1csc2ncnc(NCCc3c[nH]c4ccccc34)c12 [Example 155, N-[2-(1H-indol-3-yl)ethyl]-5-methylthieno[2,3-d]pyrimidin-4-amine]"
13,> 10,"Cc1csc2ncnc(N3CCc4ccccc4C3)c12 [Example 216, 2-{5-methylthieno[2,3-d]pyrimidin-4-yl}-1,2,3,4-tetrahydroisoquinoline]"
14,> 10,"Cc1csc2ncnc(NCc3ccc(Cl)cc3Cl)c12 [Example 167, N-[(2,4-dichlorophenyl)methyl]-5-methylthieno[2,3-d]pyrimidin-4-amine]"
15,> 10,"Cc1csc2ncnc(NCCCNC(=O)OC(C)(C)C)c12 [Example 163, tert-butyl N-[3-({5-methylthieno[2,3-d]pyrimidin-4-yl}amino)propyl]carbamate]"

# — patent publication US20100063047A1 (KALYPSYS, INC., priority 2008, published 2010)
